“Also recorded” adds a separate entry of the source. Read-outs that look alike come from different tables or passages of the source.
How the values were obtained:
[1] = target: T1, human Cannabinoid Receptor 1 (CB1R) (Homo sapiens, UniProt P21554); assay type: cell-based; conditions: for Normalized Activity at 1 μM, CB1R: PINACA compounds; for Normalized Activity at 1 μm, CB1R: 5-fluoro PB-22 isomers; for maximal signaling in CB1R dose response: dose-response curves; for EC50 / EC50 at CB1R, synthetic cannabinoid dose response: syn-prepro-Δ89-CB1R, wild type ergosterol strain; for EC50: read-out: EC50 at CB1R, synthetic cannabinoid dose response; for signaling at CB1R in terpene screen: terpenes at 100 μM, normalized to 100 μM ACEA; for relative fluorescence of the ACEA positive control at CB1R: compounds at 10 nM, 100 μM ACEA control
T1 construct: syn-prepro (synthetic yeast pre-pro secretion leader) (N); expressed in transfected cells; host or cells: Saccharomyces cerevisiae BY4741-derived strain (ste2, sst2, far1 knocked out); Gpa1-Gαi3 chimera
T1 sequence (P21554 90-472): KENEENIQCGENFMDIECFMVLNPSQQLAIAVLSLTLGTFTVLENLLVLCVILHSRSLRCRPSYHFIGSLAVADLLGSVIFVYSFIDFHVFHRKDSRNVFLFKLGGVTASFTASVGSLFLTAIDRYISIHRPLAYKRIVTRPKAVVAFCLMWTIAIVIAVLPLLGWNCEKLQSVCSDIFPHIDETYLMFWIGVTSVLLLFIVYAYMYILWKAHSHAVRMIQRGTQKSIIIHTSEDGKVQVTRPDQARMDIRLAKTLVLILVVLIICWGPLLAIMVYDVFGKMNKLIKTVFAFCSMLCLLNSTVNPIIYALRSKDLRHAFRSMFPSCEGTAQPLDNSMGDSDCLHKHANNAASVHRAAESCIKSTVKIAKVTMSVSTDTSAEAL

[2] = target: human cannabinoid receptor type II (CB2R) (Homo sapiens, UniProt P34972); test: cell-based; assay type: cell-based; parameters: Normalized Activity at 1 μM, CB2R; other: PINACA compounds, 1 μM; Normalized Activity at 1 μm, CB2R; other: 5-fluoro PB-22 isomers, 1 μm; other: MFα-CB2R, ST03 sterol strain, pH 5.8; activity against CB2R; other: at 10 nM, dose response; preference at CB2R of ADB-BINACA over AB-PINACA; signaling at CB2R in synthetic cannabinoid screen; fused on or other part: yeast mating factor alpha (MFα) pre-pro leader fused at the N-terminus as a trafficking signal; conditions: for Normalized Activity at 1 μM, CB2R: PINACA compounds; for Normalized Activity at 1 μm, CB2R: 5-fluoro PB-22 isomers; for signaling at CB2R in synthetic cannabinoid screen: compounds at 1 μM; for EC50: MFα-CB2R, ST03 sterol strain, pH 5.8
Chain of human cannabinoid receptor type II (CB2R) (P34972 whole entry, the tested form may be a part): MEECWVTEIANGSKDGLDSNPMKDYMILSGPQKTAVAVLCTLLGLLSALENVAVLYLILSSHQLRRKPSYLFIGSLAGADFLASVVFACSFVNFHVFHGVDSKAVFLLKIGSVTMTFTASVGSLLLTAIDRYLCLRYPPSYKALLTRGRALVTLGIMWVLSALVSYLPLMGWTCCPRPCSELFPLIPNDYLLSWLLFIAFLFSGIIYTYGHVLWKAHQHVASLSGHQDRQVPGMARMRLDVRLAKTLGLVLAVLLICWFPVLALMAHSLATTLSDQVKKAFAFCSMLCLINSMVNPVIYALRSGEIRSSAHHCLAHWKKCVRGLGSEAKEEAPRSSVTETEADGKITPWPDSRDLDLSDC
Protocol: To efficiently transduce signals from the human machinery to the yeast pathway, the yeast 5 C-terminal residues of the G-alpha gene GPA1 were replaced with the sequence of the Gαi3 human G-alpha variant as previously described (Brown et al. 2000). ZsGreen1 was used to report on the activity of the pathway, integrating it into the genome in place of the pheromone-inducible Fig1 gene (FIG. 14A).
Yeast colonies were picked and grown overnight to saturation in pH 5.8 SD-His media in a 2.2 mL deep well plate (Axygen) grown in a plate-shaking incubator (30° C., 1000 rpm, 3 mm orbital). In the morning cultures were diluted 1:10 or 1:25 in SD-His media buffered to pH 7.1 with 100 mM MOPSO (unless otherwise specified). Ligands were added to the culture and incubated with shaking for 8 hours. Cells were then washed three times with ice-cold Tris buffer (pH 7) and diluted 1:20 for cytometry. All cytometry was performed on a Sony SA3800 spectral analyzer. Each sample was tested for 10,000 events, and read at a rate of 1,000 events per second. All assays as reported here were filtered only for singlet populations.

## CCCC(F)Cn1nc(C(=O)NC(C(N)=O)C(C)C)c2ccccc21 (stereo not shown)
[1]
  Normalized Activity at 1 μM, CB1R: 0.632
[2]
  Normalized Activity at 1 μM, CB2R: 0.340

## CCCCCn1nc(C(=O)NC(C)(C(N)=O)C(C)C)c2ccccc21 (stereo not shown)
[1]
  Normalized Activity at 1 μM, CB1R: 0.810
[2]
  Normalized Activity at 1 μM, CB2R: 0.303

## CCC(F)CCn1nc(C(=O)NC(C(N)=O)C(C)C)c2ccccc21 (stereo not shown)
[1]
  Normalized Activity at 1 μM, CB1R: 0.700
[2]
  Normalized Activity at 1 μM, CB2R: 0.310

## CCCCCn1nc(C(=O)N[C@@H](CCCC)C(N)=O)c2ccccc21
[1]
  Normalized Activity at 1 μM, CB1R: 0.735
[2]
  Normalized Activity at 1 μM, CB2R: 0.460

## CC(C)(C)C(NC(=O)c1cn(Cc2ccccc2)c2ccccc12)C(N)=O (stereo not shown)
[1]
  Normalized Activity at 1 μM, CB1R: 0.842
[2]
  Normalized Activity at 1 μM, CB2R: 0.255

## O=C(Oc1cnc2ccccc2c1)c1cn(CCCCCF)c2ccccc12
[1]
  Normalized Activity at 1 μm, CB1R: 0.530

## O=C(Oc1ccc2ccncc2c1)c1cn(CCCCCF)c2ccccc12
[2]
  Normalized Activity at 1 μm, CB2R: 0.339

## O=C(Oc1cncc2ccccc12)c1cn(CCCCCF)c2ccccc12
[1]
  Normalized Activity at 1 μm, CB1R: 0.570

## O=C(Oc1ccc2cccnc2c1)c1cn(CCCCCF)c2ccccc12
[1]
  Normalized Activity at 1 μm, CB1R: 0.550

## O=C(Oc1cccc2ccncc12)c1cn(CCCCCF)c2ccccc12
[2]
  Normalized Activity at 1 μm, CB2R: 0.771

## CCCC(F)Cn1nc(C(=O)Oc2cccc3cccnc23)c2ccccc21 (stereo not shown)
[1]
  Normalized Activity at 1 μm, CB1R: 0.531
[2]
  Normalized Activity at 1 μm, CB2R: 0.582

## O=C(Oc1ccc2cnccc2c1)c1cn(CCCCCF)c2ccccc12
[2]
  Normalized Activity at 1 μm, CB2R: 0.331

## O=C(Oc1ccc2ncccc2c1)c1cn(CCCCCF)c2ccccc12
[1]
  Normalized Activity at 1 μm, CB1R: 0.500
[2]
  Normalized Activity at 1 μm, CB2R: 0.141

## CCCCCn1nc(C(=O)N[C@H](C(N)=O)[C@@H](C)CC)c2ccccc21 (single isomer, unassigned)
[1]
  Normalized Activity at 1 μM, CB1R: 0.753
[2]
  Normalized Activity at 1 μM, CB2R: 0.568

## CCCC(NC(=O)c1nn(Cc2ccc(F)cc2)c2ccccc12)C(N)=O (single isomer, unassigned; isomer 1) [AB-FUBINACA isomer 1]
[1]; compounds at 1 μM
  signaling at CB1R in synthetic cannabinoid screen relative to 100 μM ACEA positive control: greatest activity of all the isomers
[1]
  maximal signaling in CB1R dose response: high maximal signaling
  EC50: 0.01 nM

## CC(C)(C)C(NC(=O)c1c2ccccc2nn1CCCCCF)C(N)=O (single isomer, unassigned; isomer 2) [5-fluoro ADB-PINACA isomer 2]
[1]
  EC50 at CB1R, synthetic cannabinoid dose response: low nanomolar range
  EC50: 2.25 nM

## CCC(C)(NC(=O)c1nn(Cc2ccc(F)cc2)c2ccccc12)C(N)=O (single isomer, unassigned; isomer 2) [AB-FUBINACA isomer 2]
[1]
  maximal signaling in CB1R dose response: lower response
  EC50: 0.23 nM

## CCC(C(N)=O)N(C)C(=O)c1nn(Cc2ccc(F)cc2)c2ccccc12 (single isomer, unassigned; isomer 5) [AB-FUBINACA isomer 5]
[1]; compounds at 1 μM
  signaling at CB1R in synthetic cannabinoid screen relative to 100 μM ACEA positive control: least GPCR activation
[1]
  maximal signaling in CB1R dose response: lower response
  EC50: 15.9 nM

## CC(C)=CCCC(C)CCO (stereo not drawn) [(+)-β-Citronellol]
[1]
  signaling at CB1R in terpene screen: activate CB1R

## CC1(C)C(C(=O)c2cn(CCN3CCOCC3)c3ccccc23)C1(C)C [A-796260]
[2]
  signaling at CB2R in synthetic cannabinoid screen: among the top CB2R targets

## COCCn1c(C)c(C)s/c1=N\C(=O)C1C(C)(C)C1(C)C [A-836339, 2,2,3,3-Tetramethyl-cyclopropanecarboxylic Acid [3-(2-Methoxy-ethyl)-4,5-dimethyl-3H-thiazol-(2Z)-ylidene]-amide]
[2]; read-out: EC50 at CB2R, dose response
  EC50: 16.3 nM

## CC(C)[C@H](NC(=O)c1cn(Cc2ccccc2)c2ccccc12)C(N)=O [AB-BICA]
[1]; compounds at 1 μM
  signaling at CB1R in synthetic cannabinoid screen relative to 100 μM ACEA positive control: CB1R agonists
[2]
  signaling at CB2R in synthetic cannabinoid screen: poor CB2R signalers

## CC(C)[C@H](NC(=O)c1cn(CC2CCCCC2)c2ccccc12)C(N)=O [AB-CHMICA]
[1]; compounds at 1 μM
  signaling at CB1R in synthetic cannabinoid screen relative to 100 μM ACEA positive control: CB1R agonists
[2]
  signaling at CB2R in synthetic cannabinoid screen: poor CB2R signalers

## CC(C)[C@H](NC(=O)c1nn(Cc2ccc(F)cc2)c2ccccc12)C(N)=O [AB-FUBINACA]
[1]
  relative fluorescence of the ACEA positive control at CB1R: strong signaling
  maximal signaling in CB1R dose response: high maximal signaling
  EC50: 0.66 nM
[1]; compounds at 1 μM
  signaling at CB1R in synthetic cannabinoid screen relative to 100 μM ACEA positive control: maximal fluorescence

## CCCCCn1nc(C(=O)NC(C(N)=O)C(C)(C)C)c2ccccc21 (stereo not shown) [ADB-PINACA]
[1]
  relative fluorescence of the ACEA positive control at CB1R: strong signaling
  EC50 at CB1R, synthetic cannabinoid dose response: low nanomolar range
  EC50: 0.09 nM
[1]; compounds at 1 μM
  signaling at CB1R in synthetic cannabinoid screen relative to 100 μM ACEA positive control: maximal fluorescence
[2]
  signaling at CB2R in synthetic cannabinoid screen: high activity

## CN1CCCCC1Cn1cc(C(=O)c2cc([N+](=O)[O-])ccc2I)c2ccccc21 (stereo not shown) [AM-1241]
[1]
  signaling at CB1R in synthetic cannabinoid screen relative to 100 μM ACEA positive control: at most approximately half the relative fluorescence of the ACEA positive control

## CCN(CC)CCN1C(=O)CN=C(c2ccccc2F)c2cc(Cl)ccc21 [Flurazepam]
[1]; compounds at 1 μM
  signaling at CB1R in synthetic cannabinoid screen relative to 100 μM ACEA positive control: did not show strong signal; also recorded: does not strongly activate the CB1R

## CCCCCCC(C)(C)c1cc(O)c2c(c1)OC(C)(C)[C@H]1CC=C(CO)C[C@H]21 [HU-211]
[1]
  signaling at CB1R in synthetic cannabinoid screen relative to 100 μM ACEA positive control: at most approximately half the relative fluorescence of the ACEA positive control

## CCCCCn1c(O)c(N=NC(=O)c2ccccc2)c2ccc(OC)cc21 [MDA 77]
[1]; compounds at 1 μM
  signaling at CB1R in synthetic cannabinoid screen relative to 100 μM ACEA positive control: at most approximately half the relative fluorescence of the ACEA positive control

## CCCCCn1cc(-c2nc(CN(CC)CC)cs2)c2ccccc21 [PTI-1]
[1]; compounds at 1 μM
  signaling at CB1R in synthetic cannabinoid screen relative to 100 μM ACEA positive control: CB1R agonists
[2]
  signaling at CB2R in synthetic cannabinoid screen: poor CB2R signalers

## CC(C)c1c(O)ccc2c1CC[C@H]1C(C)(C)CCC[C@]21C [Totarol]
[2]; EC50 at CB2R, dose response
  EC50: 485 nM
[2]; at 10 nM, dose response
  activity against CB2R: active

## Cc1c(C(=O)c2ccccc2)c(N)c(-c2ccccc2)n1Cc1ccc(Cl)cc1 [URB447]
[1]; compounds at 1 μM
  signaling at CB1R in synthetic cannabinoid screen relative to 100 μM ACEA positive control: at most approximately half the relative fluorescence of the ACEA positive control

## COc1ccc(C(=O)c2c(C)n(CCN3CCOCC3)c3cc(Br)ccc23)cc1 [WIN54,461]
[1]; compounds at 1 μM
  signaling at CB1R in synthetic cannabinoid screen relative to 100 μM ACEA positive control: at most approximately half the relative fluorescence of the ACEA positive control

## CCCCCn1nc(C(=O)N[C@H](C(N)=O)C(C)C)c2ccccc21 [drawing 1]
[1]
  Normalized Activity at 1 μM, CB1R: 0.550

## C=C1CCC[C@]2(C)CC[C@@H](C(C)(C)O)C[C@@H]12 [β-Eudesmol]
[1]; 10 μM, dose response
  signaling at CB1R at lower concentration: showed signaling
[1]
  signaling at CB1R in terpene screen: activate CB1R

— patent publication US20250027072A1, “METHODS AND CO[…] TO ENGINEERED CANNABINOID RECEPTORS” (priority 2021, published 2025)
